From article PMC12177571, “Glycosidase-activated prodrugs of a cytotoxic iron chelator for targeted cancer therapy” (RSC Medicinal Chemistry, 2025)

Assays:
β-glucosidase = assay: AIE fluorescence study of release of 1 with β-glucosidase; type: biochemical, almonds; details: for Relative emission intensity at 480 nm (for 3b at 420 nm): 20 μM in water; for Fluorescence emission / release of 1 (in words): water, three enzyme units of β-glucosidase, 0 h and 24 h
Protocol: The AIE fluorescence properties of 1 were used as a means of supporting the above conclusion. The emission of all glycosylated prodrugs is suppressed. Thus, solutions of each prodrug were prepared in water, and three enzyme units of β-galactosidase or β-glucosidase, as appropriate, were added to the prodrugs. Each mixture was then analysed by fluorescence spectroscopy after 24 h of incubation. […] This finding is consistent with a lack of enzymatic activation.
Fig. 4 Relative emission intensity at 480 nm (*for 3b at 420 nm) of evaluated compounds at 20 μM before and after incubation with 3 U of the appropriate enzyme. TEXT PRINTED IN THE PICTURE: 1: Relative Emission 480 nm: 100% (Before incubation); Relative Emission 480 nm: 100% (After 24 h incubation) | 2a: Relative Emission 480 nm: 0% (Before incubation); Relative Emission 480 nm: 0% (After 24 h incubation) | 2b: Relative Emission 480 nm: 0% (Before incubation); Relative Emission 480 nm: 1% (After 24 h incubation) | 3a: Relative Emission 480 nm: 1% (Before incubation); Relative Emission 480 nm: 33% (After 24 h incubation) | 3b*: Relative Emission 480 nm: 1% (Before incubation); Relative Emission 480 nm: 11% (After 24 h incubation)
Figure S25: Fluorescence spectra for excitation (blue) and emission (green) of 1 at a concentration of 20 μM in water. […]
Figure S27: Fluorescence spectra for excitation (blue) and emission (green) of 2b at a concentration of 20 μM in water
before (left) and after (right) incubation with 3 units of b-glucosidase for 24 h. […]
Figure S29: Fluorescence spectra for excitation (blue) and emission (green) of 3b at a concentration of 20 μM in water
before (left) and after (right) incubation with 3 units of β-glucosidase for 24 h. […]

[1] = Fe(III) binding study by UV-vis spectroscopy; details: 30 μM compound, excess FeCl3 (50 μM), methanol
Protocol: With the prodrugs in hand, binding studies were carried out using UV-vis spectroscopy; this was done to confirm the Fe(III) binding ability of all new compounds. […] To evaluate whether 2a, 2b, 3a, and 3b were chelating Fe(III), each prodrug was similarly dissolved in a solution containing excess FeCl3.
Fig. 2 UV-vis absorption spectra for prodrugs 2a/b and 3a/b as well as 1 at a concentration of 30 μM with an excess of FeCl3 as Fe(III) source (50 μM) in methanol.
UV-vis spectra were recorded in methanol containing the indicated ligand or prodrug at a concentration of 30 µM and as appropriate Fe(III) at a concentration of 50 µM. A stock solution of FeCl3 in DMSO was used as source of Fe(III) and ligands were added from a […] stock solution in DMSO. All samples contained a final concentration of <0.2% DMSO.
Figure S7: UV-vis absorption spectra of 1, Fe(III), and 1 + Fe(III). The graph for 1 + Fe(III) (Numerically) was constructed by numerically adding the respective signals of Fe(III) and 1 to show what graph could be expected if the two species were in the same solution without interacting.
Figure S8: UV-vis absorption spectra of 2a, Fe(III), and 2a + Fe(III). The graph for 2a + Fe(III) (Numerically) was constructed by numerically adding the respective signals of Fe(III) and 2a to show what graph could be expected if the two species were in the same solution without interacting. […]

OvCar-3 cells = assay: MTT cell viability assay, OvCar-3 cells; type: cell-based; details: Homo sapiens, 72 h incubation, mean and SD of three independent experiments, read-out: IC50 against OvCar-3
Protocol: (§1) Next, the cytotoxicity of the prodrugs was assessed in the human lung cancer (A549) and human ovarian cancer (OvCar-3) cell lines: overexpressing β-glucosidase, and, overexpressing both β-glucosidase and β-galactosidase, respectively.[40,41] For this, a standard MTT assay was employed to generate the proliferation profiles (cf. ESI ^† Fig. S1–S5) and allowed us to calculate the IC50 values for each compound. GM5756 fibroblast cells were included as non-cancerous control.
(§2) Cell culture. Ovcar-3 cells were maintained in RPMI-1640 medium (Invitrogen), A549 cells were maintained in high glucose (4.5 g/L) Dulbecco’s Modified Eagle’s medium (Invitrogen. Alle employed culture media were supplemented with 10% fetal bovine serum (Gibco), 2% penicillin/streptomycin (Sigma Aldrich), 1%GlutaMAX™-I (100x, Gibco), and 1% sodium pyruvate (100 mM, Gibco).
(§3) Cells were kept under a humidified atmosphere of 10% CO2 and 90% air at 37°C. Cells were split when they reached 90% confluency. All employed cell lines were sourced from the German Collection of Microorganisms and Cell Cultures (Leibnitz Institute, DSMZ).
(§4) Cell viability studies and MTT assays. Cells were harvested and plated on a 96-well plate in 100 µL growth medium at a density of 1500 cells per well. The cells were left to grow for 24 h at 37°C under a humidified atmosphere with 10% CO2. The next day, 100 µL of growth medium containing appropriate concentrations of the investigated compound were added to each well. As a control, the first row of wells was treated with 100 µL medium containing only the vehicle (1% DMSO); all wells contained a final concentration of 0.5% DMSO for the duration of the treatment. After incubation with the compound for 72 h, 50 µL of MTT solution (2.5 mg/mL 3-(4,5-dimethylthiazol-2-yl)-2,5-diphenyltetrazolium bromide dye in PBS buffer) was added to each well. After an additional incubation for 2 h, the supernatant was aspired off and 200 µL of DMSO was added to each well to solubilize the precipitated formazan dye. The produced formazan dye was quantified by measuring the optical density of the solution at 550 nm with a Tecan Infinite M Nano+ plate reader. A baseline correction was performed by subtracting a reference absorbance at 620 nm for each well. From the mean of the corrected absorbances for each set of equivalent wells, a dose-response curve was produced, which was then normalized to the wells containing untreated cells to allow for plate-to-plate comparison. The resulting dose-response curves were subjected to non-linear regression analysis performed in Microsoft Excel (version 16.64) to determine IC50 via the Hill-Langmuir model. Data is shown as the mean of three replicate experiments and error bars represent the standard deviation at each datum point.

A549 cells = assay: MTT cell viability assay, A549 cells; type: cell-based; details: Homo sapiens, 72 h incubation, mean and SD of three independent experiments, read-out: IC50 against A549
Protocol: as §1, §2, §3, §4

GM5756 fibroblast cells = assay: MTT cell viability assay, GM5756 fibroblast cells (non-cancerous control); type: cell-based; details: 72 h incubation, mean and SD of three independent experiments, read-out: IC50 against GM5756
Protocol: as §1, §2, §3, §4

[2] = after 24 h incubation with 3 U β-glucosidase
[3] = before incubation with 3 U β-glucosidase

Row | Structure (SMILES) | Relative emission intensity at 480 nm (for 3b at 420 nm) (β-glucosidase; [2]) [%] | Relative emission intensity at 480 nm (for 3b at 420 nm) (β-glucosidase; [3]) [%] | Fluorescence emission / release of 1 (in words) (β-glucosidase) | Absorbance at 510 nm (Fe(III) chelation band) [1] | IC50 (OvCar-3 cells) [µM] | IC50 (A549 cells) [µM] | IC50 (GM5756 fibroblast cells) [µM]
1 | OC[C@H]1OC(Oc2ccccc2-c2nc(-c3ccccc3O)nn2-c2ccccc2)[C@H](O)[C@@H](O)[C@@H]1O (stereo partly shown) [2b] | 1 | 0 | no fluorescence emission was observed | no relevant absorbance at 510 nm | 76.5 ± 0.8 | > 100 | > 100
2 | OC[C@H]1OC(Oc2ccccc2-c2nc(-c3ccccc3O)nn2-c2ccccc2)[C@H](O)[C@@H](O)[C@H]1O (stereo partly shown) [2a] | – | – | – | no relevant absorbance at 510 nm | 67.6 ± 13 | 74.4 ± 14.1 | > 100
3 | OC[C@H]1OC(Oc2ccc(COc3ccccc3-c3nc(-c4ccccc4O)nn3-c3ccccc3)cc2)[C@H](O)[C@@H](O)[C@@H]1O (stereo partly shown) [3b] | 11 | 1 | less pronounced emission | no relevant absorbance at 510 nm | 3.7 ± 0.3 | 7.4 ± 1.5 | 15.3 ± 2.3
4 | OC[C@H]1OC(Oc2ccc(COc3ccccc3-c3nc(-c4ccccc4O)nn3-c3ccccc3)cc2)[C@H](O)[C@@H](O)[C@H]1O (stereo partly shown) [3a] | – | – | – | no relevant absorbance at 510 nm | 9.1 ± 1.6 | 44.1 ± 2.4 | > 100
